According to patent publication US20120135089A1, “E3 LIGASE INHIBITORS” (priority 2009, published 2012):
Structures can show the parent of a compound that is named as a salt. Non-standard residues stand in square brackets, D forms with d. Residues, ends and D or L forms follow the SMILES beside them. *: point of attachment. Nle = CCCC[C@H](N)C(=O)O; Cbz = O=C(OCc1ccccc1)*

Legend:
[1] = test system: MdmX; assay: etoposide-induced MdmX degradation in MCF7 cells (Western blot); type: cell-based, human; conditions: etoposide 30 μg/ml, 16 hours
Description: (§1) Cells were plated in 384-well format and treated with MG132 (2 hours) or cycloheximide (30 minutes). Steadylite luminescence buffer (PerkinElmer) was added and the relative luminescence levels determined on a Victor3 Plate Reader. Each graph represents the median of 5 replicates normalized to a no treatment control, and one standard deviation is shown. […] The graphs and EC50 values were determined using Graphpad PRISM®. […] U2OS, RKO, and HCT116 cells (p53 wild-type) were incubated with 5 μg/ml (14 μM) of MEL23, 5 μg/ml (15 μM) of MEL24, or 10 μM of MG132 for 6 hours. Cells were lysed and analyzed by Western blotting using anti-Mdm2, anti-p53, and anti-eIF4E antibodies. NT indicates a no treatment control. […] MCF7 cells (p53 wild-type) were incubated with 30 μg/ml (51 μM) etoposide alone or in combination with 50 μM AlIn or 5 μg/ml (14 μM) MEL23, or 5 μg/ml (15 μM) MEL24 for 16 hours. Cells were lysed and analyzed by Western blotting using anti-MDMX and anti-actin antibodies.
(§2) Cells were seeded and treated with the indicated compound(s). Cells were lysed after each time point in a buffer of 50 mM TrisHCl pH 7.5, 200 mM NaCl, 0.5% NP-40, and 1 complete mini EDTA-free protease inhibitor cocktail tablet per 10 mL of buffer (Roche, Cat. No. 8360170). Protein content was quantified using a Biorad protein assay reagent (Bio-Rad Laboratories, Hercules, Calif., Cat. No. 500-0006). SDS sample buffer was added to the samples, and the mixture was boiled for 5 minutes. Equal amounts of protein were resolved on a 1D SDS-PAGE gel. Following separation proteins were transferred to nitrocellulose membrane, blocked with 5% milk, and then incubated with primary antibody overnight at 4° C. The membrane was incubated with secondary-HRP antibody for 45 minutes at room temperature and developed with SuperSignal West Pico Substrate (Pierce, Rockford, Ill., Cat. No. 34080).

[2] = test system: p53 ubiquitination; assay: cell-based p53 ubiquitination assay in H1299 cells; parameters: species or system human; conditions: H1299 transfected with p53, Mdm2, ubiquitin; 10 μg/ml pre-treatment, 10 μM MG132
Description: To obtain the results shown in FIG. 4A, Mdm2-luciferase cells were transfected with ubiquitin-HA and treated 8 hours later with 10 μg/ml (28 μM) MEL23, 10 μg/ml (31 μM) MEL24, or a DMSO control. After 16 hours, cells were additionally treated with 10 μM MG132 or a DMSO control. After 3 hours, cells were lysed and immunoprecipitated for 3 hours with anti-HA affinity matrix. Total lysates and immunoprecipitated samples were analyzed by Western blotting using anti-Mdm2 antibody. NT indicates a no treatment control. […] After 8 hours, cells were treated with 10 μg/ml (28 μM) MEL23, 10 μg/ml (31 μM) MEL24, or a DMSO control. After 16 hours, cells were additionally treated with 10 μM MG132 or a DMSO control. After 3 hours cells were lysed and analyzed by Western blotting using anti-p53 antibody. “p53-Ub” indicates the slower migrating species of the protein that are the ubiquitin-conjugated forms.
To test the effects of the MEL compounds on p53 ubiquitination, H1299 cells were transfected with plasmids expressing p53, Mdm2, and ubiquitin and pre-treated with 10 μg/ml MEL23 or MEL24, followed by treatment with 10 μM MG132. Ubiquitination of p53 was analyzed by Western blotting. […] In fact, the half-life of p53 increased from an hour to greater than 6 hours with 5 μg/ml MEL23 treatment (FIG. 32). Thus, treatment with MEL23 and MEL24 inhibits ubiquitin conjugation to Mdm2 and p53.

[3] = target: T1, Mdm2-luciferase fusion protein (Homo sapiens, UniProt Q00987); assay: cell-based Mdm2 auto-ubiquitination luminescence assay, Mdm2-luciferase cell line; conditions: 384-well format
T1 construct: Using full-length Mdm2 allowed for the presence of all domains of Mdm2; expressed in transfected cells
Description: as §1
The Mdm2-luciferase cell line was seeded at 7,500 cells per well, in 384-well white plates (PerkinElmer, Waltham, Mass., Cat. No. 6007688), in 27 μl of media (DMEM with FBS and P/S). Assay plates with cells were incubated at 37° C. overnight to allow cells to adhere. After 24 hours, 2 μl from the ‘mother’ plate (4 mg/ml) was transferred to a ‘daughter plate’ containing 148 μl media in order to dilute the compound 1:75. Next, 3 μl from each well of the ‘daughter plates’ was added to triplicate assay plates for a final concentration of 5.33 μg/ml. Assay plates were incubated at 37° C. for 2 hours. Then the cells were lysed with the addition of 30 μl of luminescence buffer (PerkinElmer, Cat. No. 6016989), and the plates were incubated at room temperature for 30 minutes before being analyzed on a Victor3 Plate Reader (PerkinElmer) for luminescence. […] All repurchased compounds were tested in a 2-fold dilution series via the same protocol as the primary screening. All transfers were conducted using a BioMek (Beckman Coulter, Fullerton, Calif.). […] This was determined by comparing the negative control, no treatment, to the positive control, 10 μM MG132.
To identify Mdm2 E3 ligase inhibitors, a high-throughput cellular assay to measure changes in Mdm2 auto-ubiquitination and degradation was designed. This assay took advantage of the fact that Mdm2 can regulate itself in cells through ubiquitination and degradation (8). Two fusion proteins were constructed for the assay: (a) a wild-type Mdm2-luciferase fusion protein, which can auto-ubiquitinate and thereby target itself for degradation; and (b) a mutant Mdm2(C464A)-luciferase fusion protein. Both fusion proteins were constructed with luciferase N-terminal to Mdm2. The C464A mutation disrupts a metal binding site in the RING domain, thereby preventing Mdm2 E3 ligase activity (8). Small molecules that increase the luminescence of the Mdm2-luciferase fusion protein without increasing the luminescence of the Mdm2(C464A)-luciferase fusion protein are likely inhibiting Mdm2 E3 ligase activity or the proteasomal degradation of Mdm2. Alternatively, small molecules that increase the luminescence of both fusion proteins are likely affecting transcription, translation, or have a general cellular impact that is not dependent on the E3 ligase activity of Mdm2 or proteasomal degradation.

[4] = test system: Mdm2 and p53 levels; assay: Western blot of Mdm2 and p53 protein levels in cell lines; type: cell-based, human; conditions: 6 hours; for p53 levels in RKO and RKO-E6 cells: isogenic RKO and RKO-E6 (HPV-E6) cells
Description: as §1
(§3) H1229 cells were transfected with Mdm2-Flag or remained untransfected. Cells were treated with 5 μg/ml (14 μM) MEL23, 5 μg/ml (15 μM) MEL24, 10 μM MG132, or 1 μg/ml of doxorubicin for 6 hours. Cells were lysed and analyzed by Western blotting using anti-Mdm2 and anti-actin antibodies. The lower band indicated with a star seen with the Mdm2 antibody is a non-specific band. NT indicates a no treatment control. […] RKO and RK0-E6 cells were treated with 5 μg/ml (14 μM) MEL23, 5 μg/ml (15 μM) MEL24, 10 μM MG132, 0.5 μg/ml doxorubicin, 0.5 μg/ml camptothecin or 25 μg/ml Etoposide for 6 hours. Cells were lysed and analyzed by Western blotting using anti-Mdm2, anti-p53, and anti-actin antibodies. The lower band indicated with a star seen with the anti-Mdm2 antibody is a non-specific band. […] RKO cells were treated with 5 μg/ml (14 μM) MEL23, 5 μg/ml (15 μM) MEL24, 10 μM MG132 or 2 μg/ml doxorubicin for 6 hours. Cells were lysed and analyzed by Western blotting using anti-Mdm2, anti-p53, anti-phospho-Ser15 p53, and anti-eiF4E antibodies.
as §2
Cells were lysed and analyzed by Western blotting using anti-Mdm2, anti-p53, and anti-actin antibodies. The lower band seen with the Mdm2 antibody is a non-specific band. NT indicates no treatment control.
Referring now to FIG. 28e, endogenous Mdm2 and p53 protein levels with MEL17 treatment are shown. Briefly, U2OS, RKO, and HCT116 cells (p53 wild-type) were incubated with 5 μg/ml of MEL17 or 10 μM of MG132 for 6 hours. Cells were lysed and analyzed by Western blotting using anti-Mdm2, anti-p53, and anti-actin antibodies. The lower band seen with the Mdm2 antibody is a non-specific band.

[5] = test system: p53-Ser15 phosphorylation; assay: p53-Ser15 phosphorylation in RKO cells (Western blot); type: cell-based, human; conditions: 6 hours
Description: as §3, §2

T1 sequence (Q00987 whole entry, the tested form may be a part): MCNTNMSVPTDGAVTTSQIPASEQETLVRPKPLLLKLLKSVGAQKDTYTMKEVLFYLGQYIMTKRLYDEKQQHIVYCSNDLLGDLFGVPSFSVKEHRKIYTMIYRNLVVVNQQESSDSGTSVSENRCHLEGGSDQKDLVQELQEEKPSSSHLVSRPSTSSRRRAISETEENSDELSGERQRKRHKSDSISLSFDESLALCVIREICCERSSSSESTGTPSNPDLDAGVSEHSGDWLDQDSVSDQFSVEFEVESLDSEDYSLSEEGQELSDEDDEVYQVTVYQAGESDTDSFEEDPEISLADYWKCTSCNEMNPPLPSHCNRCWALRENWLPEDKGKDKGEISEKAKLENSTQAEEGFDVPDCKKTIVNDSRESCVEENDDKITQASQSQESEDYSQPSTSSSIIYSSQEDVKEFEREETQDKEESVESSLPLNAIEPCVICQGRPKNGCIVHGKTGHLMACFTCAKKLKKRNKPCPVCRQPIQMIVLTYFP

SMILES	etoposide-induced MdmX degradation [1]	luminescence of the Mdm2-luciferase cell line [3]	p53 levels in RKO and RKO-E6 cells [4]	other results
CCCC[C@@H](C=O)NC(=O)[C@H](CC(C)C)NC(=O)[C@H](CC(C)C)NC(C)=O [ALLN, N-Acetyl-Leu-Leu-Nle-CHO, reference compound] (Ac-Leu-Leu-[Nle]-aldehyde)	degradation could be prevented			
CC(C)C[C@@H](C=O)NC(=O)[C@H](CC(C)C)NC(=O)[C@H](CC(C)C)NC(=O)OCc1ccccc1 [MG132, Z-Leu-Leu-Leu-aldehyde, reference compound] (Cbz-Leu-Leu-Leu-aldehyde)		increased the levels of the Mdm2-luciferase protein	increased p53 in both cell lines	p53 ubiquitination in cells [2]: significant increase in p53 ubiquitination
CC[C@@]1(O)C(=O)OCc2c1cc1n(c2=O)Cc2cc3ccccc3nc2-1 [camptothecin, reference compound]			increased p53 in both cell lines	
C[C@@H]1C[C@@H]([C@H](O)CC2CC(=O)NC(=O)C2)C(=O)[C@@H](C)C1 [cycloheximide, reference compound]		selectively decreased the luminescence of the Mdm2-luciferase protein		
COc1cccc2c1C(=O)c1c(O)c3c(c(O)c1C2=O)C[C@@](O)(C(=O)CO)C[C@@H]3O[C@H]1C[C@H](N)[C@H](O)[C@H](C)O1 [doxorubicin, doxorubicin hydrochloride, reference compound]			increased p53 in both cell lines	phosphorylation of p53 at serine-15 [5]: strongly induced; levels of endogenous and ectopically expressed Mdm2 ([4]; p53-null H1299 cells): no effect on Mdm2 levels
COc1cc([C@@H]2c3cc4c(cc3[C@@H](O[C@@H]3O[C@@H]5CO[C@@H](C)O[C@H]5[C@H](O)[C@H]3O)[C@H]3COC(=O)[C@H]23)OCO4)cc(OC)c1O [etoposide, reference compound]	MdmX levels decreased substantially		increased p53 in both cell lines	
